Source: article PMC7593906, “Synthesis and HPLC-ECD Study of Cytostatic Condensed O,N-Heterocycles Obtained from 3-Aminoflavanones” (Biomolecules, 2020)

Assays:
[1] = tested on: WM35 melanoma cell line; assay: MTT assay, viability of WM35 cells; format: cell-based, human; conditions: for antiproliferative activity at 50 μM concentration: WM35, 50 μM, monitored at 24 and 72 h (Figure S263); for IC50: MTT assay, cells treated daily for 3 days; for EC20 (logistic fit) / EC80 (logistic fit): WM35, MTT dose-response fit, treated daily for 3 days, SI figures
Description: (§1) The number of viable cells was indirectly determined by measuring the conversion of the tetrazolium salt MTT (3-{4,5-dimethilthiasol-2-il}-2,5-diphenyltetrasolium bromide, Sigma-Aldrich) to formazan by mitochondrial dehydrogenases. Cells were plated in 96-well multi-titer plates (10,000 cells per well density) in quadruplicates and were cultured for 3 days and treated by the compounds daily. Negative control group was treated with equal amount of vehicle solvent (DMSO) and positive control group was treated with 1 µg/mL doxorubicin. Cells were then incubated with 5 mg/mL MTT for 3 h, precipitated formazan crystals were dissolved in acidic isopropanol (10% 1 M HCl in isopropanol supplemented with 10% Triton X 100), and concentration of formazan was assessed colorimetrical way measuring absorbance at 565 nm.
(§2) Logistic dose-response curves were fitted using the equation y = A2 + (A1-A2)/(1 + (x/x0)^p) where the parameters are: A1: initial value (ymin), A2: final value (ymax), x0: center (EC/IC50), and p is the calculated power. Fittings were carried out and parameters were calculated using Origin 8.6 (OriginLab Corporation, Northampton, MA, USA).

[2] = tested on: A2780 ovarian carcinoma cell line; assay: MTT assay, viability of A2780 cells; format: cell-based, human; conditions: for antiproliferative activity at 50 μM concentration: A2780, 50 μM, monitored at 24 and 72 h (Figure S262); for IC50: MTT assay, cells treated daily for 3 days
Description: as §1, §2

[3] = tested on: non-cancerous HaCaT human keratinocytes; assay: MTT assay, viability of HaCaT keratinocytes; format: cell-based; design: EC20 (logistic fit) / EC80 (logistic fit): unit not given here; conditions: for EC20 (logistic fit) / EC80 (logistic fit): MTT dose-response fit, treated daily for 3 days, SI figures; for IC50: MTT assay, cells treated daily for 3 days
Description: as §1, §2

[4] = tested on: A2780 ovarian carcinoma cells; assay: CyQUANT cell proliferation assay, total DNA content; format: cell-based, human; conditions: A2780, 24 hrs incubation
Description: 2.14. CyQUANT® Cell Proliferation Assay
CyQUANT assay assesses the cellular proliferation indirectly by directly determining the DNA content in a cell population using CyQUANT fluorescent dye. […] Therefore, it is suitable to asses DNA synthesis associated with cellular proliferation. Cells were plated in 96-well multi-titer plates (10,000 cells per well density) in quadruplicates and were incubated for 24 h with various concentrations of rac-19g, then assayed for cellular proliferation following the manufacturer’s protocol. Briefly, supernatants were gently removed and the plate was snap frozen and stored at −70 °C. Then plate was thawed, cells were lysed and incubated with CyQUANT dye. The excess of the dye was removed and fluorescence was measured at 490/520 nm (excitation/emission) using a FlexStation 3 (Molecular Devices) multimodal microplate reader.

[5] = tested on: A2780 ovarian carcinoma cells; assay: SYTOX Green labeling, plasma membrane integrity; format: cell-based; conditions: A2780, 24 hrs incubation
Excerpt: (§3) 2.13. MitoProbe^TM DilC1(5) Assay and SYTOX Green Labeling
(§4) Decrease in mitochondrial membrane potential is an early hallmark of apoptosis and the disruption of the plasma membrane integrity is characteristic for cellular necrosis. These events were investigated simultaneously using MitoProbe^TM DilC1(5) assay kit and SYTOX green (both from Molecular Probes/ThermoiFisher) staining, respectively. DilC1(5) (1,1′,3,3,3′,3′-hexamethylindodicarbo - cyanine iodide) is a fluorescent cyanine dye which penetrates cytoplasm with intact membrane and accumulates primarily in mitochondria depending on the mitochondrial membrane potential. […] SYTOX Green is a nucleic acid stain impermeant to live cells with intact plasma membrane, but it penetrates the compromised membrane of necrotic, dead cells resulting in a bright green fluorescent nuclear staining.
(§5) Cells were plated in 96-well multi-titer plates (10,000 cells per well density) in quadruplicates and were incubated for 24 h with various concentrations of rac-19g. […] Finally, the excess of the dyes was removed, cells were gently washed in PBS, and fluorescence of DilC1(5) and SYTOX Green was measured at 630/680 nm and 490/520 nm (excitation/emission), respectively, using a FlexStation 3 (Molecular Devices) multimodal microplate reader.

[6] = tested on: A2780 ovarian carcinoma cells; assay: MitoProbe DilC1(5) assay, mitochondrial membrane potential; format: cell-based, human; conditions: A2780, 24 hrs incubation
Excerpt: as §3, §4, §5

[7] = tested on: acute myeloid leukemia cells; design: method as in PMID 31744877; conditions: across 30 human cell lines; read-out: EC50, viability of acute myeloid leukemia cells; cited from earlier work
[8] = tested on: chemoresistant forms of prostate cancer; design: method as in PMID 23423838; conditions: cited from earlier work
[9] = A2780, MTT dose-response fit, treated daily for 3 days, SI figures

| SMILES | antiproliferative activity at 50 μM concentration [1] | antiproliferative activity at 50 μM concentration [2] | EC20 (logistic fit) [1] | EC80 (logistic fit) [1] | EC20 (logistic fit) ([3]; HaCaT) | EC80 (logistic fit) ([3]; HaCaT) | EC20 (logistic fit) [2, 9] | also measured |
| --- | --- | --- | --- | --- | --- | --- | --- | --- |
| Cc1nc2c(s1)-c1ccccc1OC2c1ccccc1 (racemic) [rac-3a, (±)-2-methyl-4-phenyl-4H-chromeno[3,4-d][1,3]thiazole] | much weaker activities | much weaker activities |  |  |  |  |  |  |
| COc1ccc(C2Oc3ccccc3-c3sc(C)nc32)cc1 (racemic) [rac-3b, (±)-2-methyl-4-(4-methoxyphenyl)-4H-chromeno[3,4-d][1,3]thiazole] | much weaker activities | much weaker activities |  |  |  |  |  |  |
| COc1ccc(C2Oc3ccccc3-c3sc(C)nc32)cc1OC (racemic) [rac-3c, (±)-2-methyl-4-(3,4-dimethoxyphenyl)-4H-chromeno[3,4-d][1,3]thiazole] | much weaker activities | much weaker activities |  |  |  |  |  |  |
| COc1cc(C2Oc3ccccc3-c3sc(C)nc32)cc(OC)c1OC (racemic) [rac-3e, (±)-2-methyl-4-(3,4,5-trimethoxyphenyl)-4H-chromeno[3,4-d][1,3]thiazole] |  |  | 0,11527 µM | 39,68998 µM | 3.395 | 11.45 | 1,58958 mM | IC50 ([1]; Homo sapiens, WM35, 72 h): 2.14 ± 1.85 µM; IC50 ([3]; Homo sapiens, HaCaT, 72 h): 6.23 ± 1.25 µM; melting point: 113 to 115 °C; IC50 ([2]; Homo sapiens, A2780, 72 h): 2.74 µM; IC50 [2]: 2.72 ± 0.48 µM |
| Cc1nc2c(s1)-c1ccccc1OC2c1ccc2ccccc2c1 (racemic) [rac-3g, (±)-2-methyl-4-(naphthalen-2-yl)-4H-chromeno[3,4-d][1,3]thiazole] | much weaker activities | much weaker activities |  |  |  |  |  | melting point: 129 to 130 °C |
| CCOC(=O)c1c(C)[nH]c2c1-c1ccccc1OC2c1ccc(OC)cc1 (racemic) [rac-4b, (±)-ethyl 2-methyl-4-(4-methoxyphenyl)-3,4-dihydrochromeno[3,4-b]pyrrole-1-carboxylate] |  |  | 1,2746 µM | 26,63177 µM | 2.492 | 36.73 | 1,99005 mM | IC50 [1]: 5.83 ± 1.78 µM; IC50 [3]: 9.57 ± 8.77 µM; IC50 [2]: 4.84 ± 1.38 µM |
| CCOC(=O)c1c(C)[nH]c2c1-c1ccccc1OC2c1ccc(OC)c(OC)c1 (racemic) [rac-4c, (±)-ethyl 2-methyl-4-(3,4-dimethoxyphenyl)-3,4-dihydrochromeno[3,4-b]pyrrole-1-carboxylate] |  |  | 1,55024 µM | 43,44318 µM | 0.9397 | 4.167 | 2,14809 mM | IC50 [1]: 8.21 ± 4.38 µM; IC50 [3]: 1.97 ± 0.29 µM; IC50 [2]: 5.34 ± 0.88 µM |
| CCOC(=O)c1c(C)[nH]c2c1-c1ccccc1OC2c1ccc2ccccc2c1 (racemic) [rac-4g, (±)-ethyl 2-methyl-4-(naphthalen-2-yl)-3,4-dihydrochromeno[3,4-b]pyrrole-1-carboxylate] |  |  |  |  |  |  |  | melting point: 149 to 151 °C |
| O=C(CCl)N[C@@H]1[C@@H](O)c2ccccc2O[C@H]1c1ccc2ccccc2c1 (racemic) [rac-19g, (±)-2-chloro-N-[(2R*,3S*,4R*)-4-Hydroxy-2-(naphthalen-2-yl)-3,4-dihydro-2H-chromen-3-yl]acetamide] |  |  | 1,26314 µM | 9,68285 µM |  |  | 0,01488 mM | IC50 ([1]; Homo sapiens, WM35, 72 h): 3.5 ± 1.94 µM; proliferation-associated DNA synthesis (CyQUANT Assay) [4]: inhibited proliferation-associated DNA synthesis; IC50 ([3]; Homo sapiens, HaCaT, 72 h): 6.06 ± 3.3 µM; integrity of the plasma membrane (SYTOX Green staining) [5]: intact (negative SYTOX Green staining); mitochondrial membrane potential [DilC1(5) staining] [6]: decreased the mitochondrial membrane potential; EC50 ([2]; Homo sapiens, 72 h, A2780, MTT dose-response fit, treated daily for 3 days, SI figures, read-out: EC50 (x0 of logistic fit) (converted)): 0.151 µM; IC50 ([2]; Homo sapiens, A2780, 72 h): 0.15 ± 0.14 µM |
| COc1ccc([C@@H]2Oc3ccccc3[C@@H]3OCCN[C@@H]23)cc1.Cl (racemic) [rac-(4aS*,5R*,10bR*)-2b, (±)-(4aR*,5S*,10bS*)-5-(4-methoxyphenyl)-2,3,4,4a,5,10b-hexahydrochromeno[4,3-b][1,4]oxazine hydrochloride] | the most active | the most active | 26,114 µM | 43,39258 µM | 7.569 | 38.76 | 6,72446 mM | IC50 [3]: 17.1 ± 7.95 µM; IC50 [2]: 10.4 ± 2.71 µM |
| COc1cc(OC)cc([C@@H]2Oc3ccccc3[C@H]3OCCN[C@H]32)c1 (racemic) [rac-(4aS*,5R*,10bS*)-2d, (±)-(4aR*,5S*,10bR*)-5-(3,5-dimethoxyphenyl)-2,3,4,4a,5,10b-hexahydrochromeno[4,3-b][1,4]oxazine] | the most active | the most active | 14,15843 µM | 53,361 µM | 11.28 | 81.84 | 10,79361 mM | IC50 [3]: 30.4 ± 49.8 µM |
| COc1cccc2c1C(=O)c1c(O)c3c(c(O)c1C2=O)C[C@@](O)(C(=O)CO)C[C@@H]3O[C@H]1C[C@H](N)[C@H](O)[C@H](C)O1 [Doxorubicin, reference compound] |  |  |  |  |  |  |  | IC50 ([1]; Homo sapiens, WM35, 72 h): 0.14 µM; IC50 ([3]; Homo sapiens, HaCaT, 72 h): 0.03 µM; IC50 ([2]; Homo sapiens, A2780, 72 h): 0.07 µM |
| CCCCCCCCCCCCCCCC(O)C(CO)NC(=O)CBr (stereo not shown) [SABRAC] |  |  |  |  |  |  |  | EC50 [7]: ~3 µM; growth of chemoresistant forms of prostate cancer [8]: inhibit the growth |
| CCCCCCCCCCCCCCCC(O)C(CO)NC(=O)CCl (stereo not shown) [SACLAC] |  |  |  |  |  |  |  | EC50 [7]: ~3 µM; growth of chemoresistant forms of prostate cancer [8]: inhibit the growth |
